According to ChEMBL document CHEMBL1201862, “PubChem BioAssay data set” (2004):
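Dose response: 5 concentrations. Exposure: 48 h. Format: 96-well plates. Endpoint: linear interpolation; highest concentration if not reached. GI50 = concentration required for 50% inhibition of growth.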 The source made the active and inactive calls. No stated cut-off is given here; in the data, active = GI50 up to about 1.1 µM and inactive = higher.

Columns and labels:
Test in all cases: NCI tumour cell line growth inhibition, 48 h
SF-268 = test system: SF-268
786-0 = test system: 786-0
Malme-3M = test system: Malme-3M
SK-MEL-28 = test system: SK-MEL-28
SNB-75 = test system: SNB-75
SW-620 = test system: SW-620
IGROV-1 = test system: IGROV-1
HOP-62 = test system: HOP-62
M14 = test system: M14
SF-539 = test system: SF-539
UACC-257 = test system: UACC-257
TK-10 = test system: TK-10
OVCAR-4 = test system: OVCAR-4
NCI-H460 = test system: NCI-H460
RXF 393 = test system: RXF 393
ACHN = test system: ACHN

Row | SMILES | GI50 (SF-268) | GI50 (786-0) | GI50 (Malme-3M) | GI50 (SK-MEL-28) | GI50 (SNB-75) | GI50 (SW-620) | GI50 (IGROV-1) | GI50 (HOP-62) | GI50 (M14) | GI50 (SF-539) | GI50 (UACC-257) | GI50 (TK-10) | GI50 (OVCAR-4) | GI50 (NCI-H460) | GI50 (RXF 393) | GI50 (ACHN)
1 | O=C1CNS(=O)(=O)N1 | > 100 µM (inactive) | > 100 µM (inactive) | > 100 µM (inactive) | > 100 µM (inactive) | > 100 µM (inactive) | > 100 µM (inactive) | > 100 µM (inactive) | > 100 µM (inactive) | > 100 µM (inactive) | > 100 µM (inactive) | > 100 µM (inactive) | > 100 µM (inactive) | > 100 µM (inactive) |  |  | 
2 | OCCC1(O)CCC(O)CC1 (configuration not stated) | > 100 µM (inactive) | > 100 µM (inactive) | > 100 µM (inactive) | > 100 µM (inactive) | 75.7 µM (inactive) | > 100 µM (inactive) | > 100 µM (inactive) | > 100 µM (inactive) | > 100 µM (inactive) | > 100 µM (inactive) | > 100 µM (inactive) | > 100 µM (inactive) | > 100 µM (inactive) | > 100 µM (inactive) |  | 
3 | O=C(/C=C/c1ccccc1F)c1ccc(Cl)c(Cl)c1 | 38.3 µM (inactive) | 17.3 µM (inactive) | > 92.9 µM (inactive) | > 53.1 µM (inactive) | 39.3 µM (inactive) | 29.3 µM (inactive) | 34.3 µM (inactive) | > 100 µM (inactive) | 32.4 µM (inactive) | 30 µM (inactive) | 49.4 µM (inactive) | > 100 µM (inactive) | 44.4 µM (inactive) | > 71.1 µM (inactive) | 21.9 µM (inactive) | > 88.1 µM (inactive)
4 | O=C1C(O)=C(CCCc2ccc(Oc3ccccc3)cc2)C(=O)c2ccccc21 | 7.64 µM (inactive) | 5.64 µM (inactive) | 12.9 µM (inactive) | 17.9 µM (inactive) | 24.4 µM (inactive) | 8.63 µM (inactive) | 6.19 µM (inactive) | 10.7 µM (inactive) | 10.5 µM (inactive) | 6.46 µM (inactive) | 4.32 µM (inactive) | 18.4 µM (inactive) | 19.4 µM (inactive) | 10.4 µM (inactive) | 14.4 µM (inactive) | 5.93 µM (inactive)
5 | CCCCCCCCCc1cc(=O)c2ccc(OCc3ccccc3)cc2o1 | > 100 µM (inactive) | > 100 µM (inactive) | 25.8 µM (inactive) | > 100 µM (inactive) | 30.8 µM (inactive) | > 100 µM (inactive) | > 100 µM (inactive) | > 100 µM (inactive) | > 100 µM (inactive) | 90.8 µM (inactive) | > 100 µM (inactive) | 65.5 µM (inactive) | 83.2 µM (inactive) | 64.4 µM (inactive) | 96.2 µM (inactive) | > 100 µM (inactive)
6 | O=C(CC(=O)c1ccccc1)C(=O)Nc1ccc(Cl)cc1 | > 100 µM (inactive) | > 67.6 µM (inactive) | > 100 µM (inactive) | > 100 µM (inactive) | > 64 µM (inactive) | > 42.8 µM (inactive) | > 100 µM (inactive) | > 100 µM (inactive) | > 100 µM (inactive) | > 100 µM (inactive) | > 61.5 µM (inactive) | > 100 µM (inactive) | > 100 µM (inactive) | > 39.5 µM (inactive) | > 100 µM (inactive) | > 100 µM (inactive)
7 | C[C@]12CCCC(=O)C1(O)C[C@H](C(=O)O)CC2 (some centres not stated) | > 100 µM (inactive) | > 100 µM (inactive) | > 100 µM (inactive) | > 100 µM (inactive) | > 100 µM (inactive) | > 100 µM (inactive) | > 100 µM (inactive) | > 100 µM (inactive) | > 100 µM (inactive) | > 100 µM (inactive) | > 100 µM (inactive) | > 100 µM (inactive) | > 100 µM (inactive) | > 100 µM (inactive) |  | > 100 µM (inactive)
8 | OC1(c2ccccc2)OC(C#Cc2ccccc2)(c2ccccc2)c2ccccc21 (configuration not stated) | 4.18 µM (inactive) | 3.73 µM (inactive) | 10.6 µM (inactive) |  | 6.1 µM (inactive) | 4.12 µM (inactive) | 11 µM (inactive) | 15.4 µM (inactive) | 2.21 µM (inactive) | 1.97 µM (inactive) | 8.32 µM (inactive) | 13.3 µM (inactive) | 2.82 µM (inactive) | 4.47 µM (inactive) | 1.95 µM (inactive) | 
9 | N#CC1([N+](=O)[O-])C=C1c1ccccc1 (configuration not stated) | 53.7 µM (inactive) | 28.8 µM (inactive) | 63 µM (inactive) |  |  | 19.9 µM (inactive) | > 100 µM (inactive) | > 100 µM (inactive) | 42.6 µM (inactive) | > 100 µM (inactive) | 78 µM (inactive) | > 100 µM (inactive) | > 100 µM (inactive) | 51.2 µM (inactive) |  | 38.6 µM (inactive)
10 | CCOC(=O)c1c2cccccc2n2c(=O)cc(C)nc12 | 69.8 µM (inactive) | > 100 µM (inactive) |  | > 100 µM (inactive) |  | > 100 µM (inactive) | > 100 µM (inactive) | > 100 µM (inactive) | > 100 µM (inactive) | > 100 µM (inactive) | > 100 µM (inactive) | > 100 µM (inactive) | > 100 µM (inactive) | > 100 µM (inactive) | > 100 µM (inactive) | > 100 µM (inactive)
11 | O=C(CC(=O)N1N=C(n2ccc3ccccc32)CC1c1ccccc1)Nc1ccc(Cl)cc1 (configuration not stated) | > 100 µM (inactive) | > 100 µM (inactive) | > 100 µM (inactive) | > 100 µM (inactive) | 59.7 µM (inactive) | > 100 µM (inactive) | > 100 µM (inactive) | > 100 µM (inactive) | > 100 µM (inactive) | 8.75 µM (inactive) | > 100 µM (inactive) | > 100 µM (inactive) | > 100 µM (inactive) | > 100 µM (inactive) | > 100 µM (inactive) | > 100 µM (inactive)
12 | c1ccc(C2N=NN(c3ccccc3)C2N2CCCCC2)cc1 (configuration not stated) | 46.5 µM (inactive) | 64.7 µM (inactive) | > 100 µM (inactive) | > 100 µM (inactive) | 20 µM (inactive) | > 100 µM (inactive) | 52.2 µM (inactive) | 42.9 µM (inactive) | > 100 µM (inactive) | 55.8 µM (inactive) | > 100 µM (inactive) | > 100 µM (inactive) | > 100 µM (inactive) |  |  | > 100 µM (inactive)
13 | COc1ccccc1NC(=O)C1=C(C)NC(C)=C(C(=O)Nc2ccccc2OC)C1/C=C/c1ccccc1 | 92.9 µM (inactive) | > 100 µM (inactive) | > 100 µM (inactive) | > 100 µM (inactive) | 25.8 µM (inactive) | > 100 µM (inactive) | > 100 µM (inactive) | > 100 µM (inactive) | > 100 µM (inactive) | > 100 µM (inactive) | > 100 µM (inactive) | > 100 µM (inactive) | 20.1 µM (inactive) | > 100 µM (inactive) |  | 90.8 µM (inactive)
14 | Cc1ccc(NC(=O)CC2SC(Nc3cccc(Cl)c3C)=NC2=O)cc1 (configuration not stated) | 37 µM (inactive) | > 100 µM (inactive) | 52.4 µM (inactive) | 40.9 µM (inactive) | > 100 µM (inactive) | 68.5 µM (inactive) | 94.8 µM (inactive) | > 100 µM (inactive) | 38.8 µM (inactive) | 53.1 µM (inactive) | 48 µM (inactive) | 92 µM (inactive) | 28.7 µM (inactive) | 96.6 µM (inactive) |  | 41 µM (inactive)
15 | COc1cccc2c1C(=O)c1c(O)c3c(c(O)c1C2=O)C[C@@](O)(C(=O)CO)CC3OC1CC(N(C)CCOCC(OC(C)=O)OC(C)=O)C(O)C(C)O1 (some centres not stated) | > 0.01 µM (active) | > 0.01 µM (active) | > 0.01 µM (active) | > 0.01 µM (active) | > 0.01 µM (active) | > 0.01 µM (active) | > 0.01 µM (active) | > 0.01 µM (active) | > 0.01 µM (active) | > 0.01 µM (active) | > 0.01 µM (active) | > 0.01 µM (active) | > 0.01 µM (active) | > 0.01 µM (active) | > 0.01 µM (active) | > 0.01 µM (active)
16 | Cc1nc(=O)n2c(C)n[nH]c2c1C(=O)Nc1cc(Cl)cc(Cl)c1 | 33.3 µM (inactive) | 28.4 µM (inactive) | 30.9 µM (inactive) | 26.1 µM (inactive) | 37.2 µM (inactive) | 41.5 µM (inactive) | 24.5 µM (inactive) | 25.6 µM (inactive) | 35.6 µM (inactive) | 21.8 µM (inactive) |  | 19.8 µM (inactive) | 29.2 µM (inactive) | 26.9 µM (inactive) | 11.9 µM (inactive) | 20 µM (inactive)
17 | CC1CCCC(C(=O)/C(=C/c2cccc(Cl)c2)C(=O)C(=O)O)C1 (configuration not stated) | 42.1 µM (inactive) | 17.9 µM (inactive) | > 100 µM (inactive) | 37 µM (inactive) | 29.9 µM (inactive) | 14.5 µM (inactive) | 30.9 µM (inactive) | > 100 µM (inactive) | 29.7 µM (inactive) | 27.5 µM (inactive) | 59.8 µM (inactive) | > 100 µM (inactive) | 37.8 µM (inactive) | 33 µM (inactive) |  | 39.4 µM (inactive)
18 | c1ccc2c(c1)CCc1c(-c3ccncc3)n[nH]c1-2 | 28.8 µM (inactive) | 37.8 µM (inactive) | 33.5 µM (inactive) | 23.8 µM (inactive) | 26.3 µM (inactive) | 39.7 µM (inactive) | 26.4 µM (inactive) | 28.4 µM (inactive) | 22.8 µM (inactive) | 24.8 µM (inactive) | 25.6 µM (inactive) | 29.8 µM (inactive) |  | 32.1 µM (inactive) |  | 26.5 µM (inactive)
